Patent publication US11254663B2 (BRISTOL-MYERS SQUIBB COMPANY, priority 2019, dated 2022)
pEC50: −log10 of the molar value.

biological target: T1, FXR (Homo sapiens (Human), UniProt Q96RI1); experiment: transient human FXR/Gal4-luciferase reporter assay; format: cell-based; conditions: not given
Outline: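 HEK293 cells stably carrying a 5×Gal4 response element–firefly luciferase reporter were transiently transfected overnight with a Gal4 DBD–human FXR LBD fusion plasmid. Compound was added in DMSO and cells were incubated overnight at 37 °C, 5% CO2. Activity was read as Steady-Glo luminescence.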

T1 sequence (Q96RI1 262-486): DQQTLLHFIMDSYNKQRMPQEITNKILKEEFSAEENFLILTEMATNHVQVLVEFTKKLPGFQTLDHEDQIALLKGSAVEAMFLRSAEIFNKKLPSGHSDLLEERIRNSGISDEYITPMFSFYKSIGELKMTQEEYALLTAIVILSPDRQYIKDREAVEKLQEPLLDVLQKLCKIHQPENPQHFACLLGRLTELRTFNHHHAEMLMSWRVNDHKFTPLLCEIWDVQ

Compound	pEC50
CC(C)(O)c1ccc(-c2cccc(N(CC34CCC(c5noc(C(C)(C)F)n5)(CC3)CC4)C(=O)NCCC3(O)CCCC3)c2)cc1 [Example 650, 1-((4-(5-(2-fluoropropan-2-yl)-1,2,4-oxadiazol-3-yl)bicyclo[2.2.2]octan-1-yl)methyl)-3-(2-(1-hydroxycyclopentyl)ethyl)-1-(4′-(2-hydroxypropan-2-yl)-[1,1′-biphenyl]-3-yl)urea]	6.33

same assay, conditions: Gal4-hFXR fusion construct, HEK293 reporter cells; response relative to 8 μM GW-4064

Compound	pEC50
CC(C)(C#N)Oc1ccc(-c2cccc(N(CC34CCC(c5noc(C(C)(C)F)n5)(CC3)CC4)C(=O)N3CCC(C(C)(C)O)CC3)c2)cc1 [Example 651, N-(4′-((2-cyanopropan-2-yl)oxy)-[1,1′-biphenyl]-3-yl)-N-((4-(5-(2-fluoropropan-2-yl)-1,2,4-oxadiazol-3-yl)bicyclo[2.2.2]octan-1-yl)methyl)-4-(2-hydroxypropan-2-yl)piperidine-1-carboxamide]	6.56
CC(C)Oc1ccc(-c2cccc(N(CC34CCC(c5noc(C(C)(F)F)n5)(CC3)CC4)C(=O)NC3CCOCC3)c2)cc1 [Example 652, 1-((4-(5-(1,1-difluoroethyl)-1,2,4-oxadiazol-3-yl)bicyclo[2.2.2]octan-1-yl)methyl)-1-(4′-isopropoxy-[1,1′-biphenyl]-3-yl)-3-(tetrahydro-2H-pyran-4-yl)urea]	6.42
CC(C)Oc1ccc(-c2cc(N(CC34CCC(c5noc(C(C)(C)F)n5)(CC3)CC4)C(=O)N[C@H]3CC[C@](C)(OC(F)F)CC3)ccc2F)cc1 [Example 653, 3-((trans)-4-(difluoromethoxy)-4-methylcyclohexyl)-1-(6-fluoro-4′-isopropoxy-[1,1′-biphenyl]-3-yl)-1-((4-(5-(2-fluoropropan-2-yl)-1,2,4-oxadiazol-3-yl)bicyclo[2.2.2]octan-1-yl)methyl)urea]	6.84
CC(C)(Oc1ccc(-c2cccc(N(CC34CCC(c5noc(C(C)(C)F)n5)(CC3)CC4)C(=O)[C@H]3C[C@](O)(C(F)(F)F)C3)c2)cc1)C(N)=O [Example 654, (cis)-N-(4′-((1-amino-2-methyl-1-oxopropan-2-yl)oxy)-[1,1′-biphenyl]-3-yl)-N-((4-(5-(2-fluoropropan-2-yl)-1,2,4-oxadiazol-3-yl)bicyclo[2.2.2]octan-1-yl)methyl)-3-hydroxy-3-(trifluoromethyl)cyclobutane-1-carboxamide]	6.77
CC(C)Oc1ccc(-c2cccc(N(CC34CCC(c5cc(C6(F)CC6)nn5C)(CC3)CC4)C(=O)OC(C)(C)C(F)(F)F)c2)cc1 [Example 655, 1,1,1-trifluoro-2-methylpropan-2-yl ((4-(3-(1-fluorocyclopropyl)-1-methyl-1H-pyrazol-5-yl)bicyclo[2.2.2]octan-1-yl)methyl)(4′-isopropoxy-[1,1′-biphenyl]-3-yl)carbamate]	6.09
CC(C)Oc1ccc(-c2cccc(N(CC34CCC(c5cc(C(C)(F)F)on5)(CC3)CC4)C(=O)OC(C)(C)C(F)(F)F)c2)cc1 [Example 656, 1,1,1-trifluoro-2-methylpropan-2-yl ((4-(5-(1,1-difluoroethyl)isoxazol-3-yl)bicyclo[2.2.2]octan-1-yl)methyl)(4′-isopropoxy-[1,1′-biphenyl]-3-yl)carbamate]	5.97
CC(C)Oc1ccc(-c2ccnc(N(CC34CCC(c5cc(C(C)(F)F)nn5C)(CC3)CC4)C(=O)OC(C)(C)C(F)(F)F)c2)cc1 [Example 657, 1,1,1-trifluoro-2-methylpropan-2-yl ((4-(3-(1,1-difluoroethyl)-1-methyl-1H-pyrazol-5-yl)bicyclo[2.2.2]octan-1-yl)methyl)(4-(4-isopropoxyphenyl)pyridin-2-yl)carbamate]	7.17
N-((4-(3-cyclopropyl-1,2,4-oxadiazol-5-yl)bicyclo[2.2.2]octan-1-yl)methyl)-3-fluoro-N-(3-morpholinophenyl)bicyclo[1.1.1]pentane-1-carboxamide [Example 417]	6.68

Next, values leading:

pEC50	Compound
6.04	CC(C)Oc1ccc(-c2cccc(N(CC34CCC(c5cc(C(C)(F)F)n(C)n5)(CC3)CC4)C(=O)OC(C)(C)C(F)(F)F)c2)cc1 [Example 658, 1,1,1-trifluoro-2-methylpropan-2-yl ((4-(5-(1,1-difluoroethyl)-1-methyl-1H-pyrazol-3-yl)bicyclo[2.2.2]octan-1-yl)methyl)(4′-isopropoxy-[1,1′-biphenyl]-3-yl)carbamate]
7.28	CC(C)Oc1ccc(-c2cccc(N(CC34CCC(c5cc(C(C)(F)F)nn5C)(CC3)CC4)C(=O)NC(C)(C)C)c2)cc1 [Example 659, 3-(tert-butyl)-1-((4-(3-(1,1-difluoroethyl)-1-methyl-1H-pyrazol-5-yl)bicyclo[2.2.2]octan-1-yl)methyl)-1-(4′-isopropoxy-[1,1′-biphenyl]-3-yl)urea]
5.66	CC(C)(C)NC(=O)N(CC12CCC(c3noc(C(C)(C)F)n3)(CC1)CC2)c1cc(-c2ccc(OC(F)F)cc2)cnn1 [Example 660]
7.28	CC(C)c1cc(C23CCC(CN(C(=O)OC(C)(C)C(F)(F)F)c4cc(-c5ccc(C(C)(C)O)cc5)ccn4)(CC2)CC3)n(C)n1 [Example 661, 1,1,1-trifluoro-2-methylpropan-2-yl (4-(4-(2-hydroxypropan-2-yl)phenyl)pyridin-2-yl)((4-(3-isopropyl-1-methyl-1H-pyrazol-5-yl)bicyclo[2.2.2]octan-1-yl)methyl)carbamate]
6.24	CC(C)(F)c1nc(C23CCC(CN(c4cccc(-c5ccc(-c6nonc6N)cc5)c4)C(=O)[C@H]4C[C@](O)(C(F)(F)F)C4)(CC2)CC3)no1 [Example 662, (cis)-N-(4′-(4-amino-1,2,5-oxadiazol-3-yl)-[1,1′-biphenyl]-3-yl)-N-((4-(5-(2-fluoropropan-2-yl)-1,2,4-oxadiazol-3-yl)bicyclo[2.2.2]octan-1-yl)methyl)-3-hydroxy-3-(trifluoromethyl)cyclobutane-1-carboxamide]
6.80	CC(C)(O)CN1CC=C(c2cccc(N(CC34CCC(c5noc(C(C)(C)F)n5)(CC3)CC4)C(=O)C34CC(F)(C3)C4)c2)CC1 [Example 663, 3-fluoro-N-((4-(5-(2-fluoropropan-2-yl)-1,2,4-oxadiazol-3-yl)bicyclo[2.2.2]octan-1-yl)methyl)-N-(3-(1-(2-hydroxy-2-methylpropyl)-1,2,3,6-tetrahydropyridin-4-yl)phenyl) bicyclo[1.1.1]pentane-1-carboxamide]
7.33	CC(C)(O)c1ccc(-c2cccc(N(CC34CCC(c5noc(C(C)(C)F)n5)(CC3)CC4)C(=O)N[C@H]3C[C@]4(C[C@@H](O)C4)C3)c2)cc1 (stereo partly drawn) [Example 664, 1-((4-(5-(2-fluoropropan-2-yl)-1,2,4-oxadiazol-3-yl)bicyclo[2.2.2]octan-1-yl)methyl)-1-(4′-(2-hydroxypropan-2-yl)-[1,1′-biphenyl]-3-yl)-3-((2S,4S,6S)-6-hydroxyspiro[3.3]heptan-2-yl)urea]
5.70	CC(C)(OC(=O)N(CC12CCC(c3nc(C4CC4)no3)(CC1)CC2)c1nccc(C23CCC(C#N)(CC2)CC3)n1)C(F)(F)F [Example 665, 1,1,1-trifluoro-2-methylpropan-2-yl (4-(4-cyanobicyclo[2.2.2]octan-1-yl)pyrimidin-2-yl)((4-(3-cyclopropyl-1,2,4-oxadiazol-5-yl)bicyclo[2.2.2]octan-1-yl)methyl)carbamate]
6.30	CC(C)(O)C12CCC(c3ccnc(N(CC45CCC(c6nc(C7CC7)no6)(CC4)CC5)C(=O)OC(C)(C)C(F)(F)F)n3)(CC1)CC2 [Example 666, 1,1,1-trifluoro-2-methylpropan-2-yl ((4-(3-cyclopropyl-1,2,4-oxadiazol-5-yl)bicyclo[2.2.2]octan-1-yl)methyl)(4-(4-(2-hydroxypropan-2-yl)bicyclo[2.2.2]octan-1-yl)pyrimidin-2-yl)carbamate]

biological target: T1, FXR; experiment: FXR EC50 (FXR agonist potency reported with each Example); format: cell-based; conditions: not given

pEC50	Compound
6.53	O=C(C1CCC(F)(F)C1)N(CC12CCC(c3nnc(C4CC4)o3)(CC1)CC2)c1cccc(-c2nnc(C3CC3)o2)c1 (racemic) [Example 133, N-((4-(5-cyclopropyl-1,3,4-oxadiazol-2-yl)bicyclo[2.2.2]octan-1-yl)methyl)-N-(3-(5-cyclopropyl-1,3,4-oxadiazol-2-yl)phenyl)-3,3-difluorocyclopentane-1-carboxamide]
6.57	CC(N(C(=O)C12CC(F)(C1)C2)c1cccc(-c2cnc(C3CC3)o2)c1)C12CCC(c3nc(C4CC4)no3)(CC1)CC2 (single isomer, unassigned) [Example 215, N-(1-(4-(3-cyclopropyl-1,2,4-oxadiazol-5-yl)bicyclo[2.2.2]octan-1-yl)ethyl)-N-(3-(2-cyclopropyloxazol-5-yl)phenyl)-3-fluorobicyclo[1.1.1]pentane-1-carboxamide]
6.29	CC(N(C(=O)C12CC(F)(C1)C2)c1cccc(-c2cnc(C3CC3)o2)c1)C12CCC(c3nc(C4CC4)no3)(CC1)CC2 (single isomer, unassigned) [Example 216, N-(1-(4-(3-cyclopropyl-1,2,4-oxadiazol-5-yl)bicyclo[2.2.2]octan-1-yl)ethyl)-N-(3-(2-cyclopropyloxazol-5-yl)phenyl)-3-fluorobicyclo[1.1.1]pentane-1-carboxamide]
5.84	CC(N(C(=O)C12CC(F)(C1)C2)c1cccc(-c2nc(C3CC3)no2)c1)C12CCC(c3nc(C4CC4)no3)(CC1)CC2 (single isomer, unassigned) [Example 217, N-(1-(4-(3-cyclopropyl-1,2,4-oxadiazol-5-yl)bicyclo[2.2.2]octan-1-yl)ethyl)-N-(3-(3-cyclopropyl-1,2,4-oxadiazol-5-yl)phenyl)-3-fluorobicyclo[1.1.1]pentane-1-carboxamide]
5.95	CC(N(C(=O)C12CC(F)(C1)C2)c1cccc(-c2nc(C3CC3)no2)c1)C12CCC(c3nc(C4CC4)no3)(CC1)CC2 (single isomer, unassigned) [Example 218, N-(1-(4-(3-cyclopropyl-1,2,4-oxadiazol-5-yl)bicyclo[2.2.2]octan-1-yl)ethyl)-N-(3-(3-cyclopropyl-1,2,4-oxadiazol-5-yl)phenyl)-3-fluorobicyclo[1.1.1]pentane-1-carboxamide]
